Data reported in patent US20250241895A1 (GH RESEARCH IRELAND LIMITED, priority 2022, published 2025).

System: patients with postpartum depression (PPD)
Test: Clinical trial of inhaled 5-MeO-DMT in postpartum depression
Conditions: for BIMF functional domain Adjustment score / BIMF functional domain Infant Care score: maximum possible 12; for BIMF functional domain Mother-Child Interaction score / BIMF functional domain Self Care score / BIMF functional domain Social Support score: maximum possible 18; for BIMF functional domain Management score: maximum possible 36; for BIMF functional domain Psychological Well-being score: maximum possible 60
Description: The single-arm, open-label clinical trial will involve 15 adult female patients with clinically diagnosed postpartum depression (PPD).
The second dose (12 mg) will only be administered if: • a. […] The 6 mg dose was safe and well-tolerated according to the investigator, • c. Any psychoactive effects (PsE) of the prior dose have subsided, and • d. Pre-dose vital parameters and forced expiratory volume in one second (FEV1) are in normal range, or if outside of the normal range, are not clinically significant according to the investigator. • 3. Similarly, a third dose (18 mg) will only be administered if: • a. […] The 12 mg dose was safe and well-tolerated according to the investigator, and • c. Any PsE of the prior dose have subsided, and • d. Pre-dose vital parameters and forced expiratory volume in one second (FEV1) are in normal range, or if outside of the normal range, are not clinically significant according to the investigator.
The patients will be assessed for a peak psychedelic experience (based on a patient-scored visual analogue scale, the PE scale), sedation, and other endpoints after dosing. Follow-up visits are planned for Day 1, and Day 7 after the dosing day.
The following criteria must be met by all patients considered for clinical trial participation: • 1. Is female and in the age range between 18 and 45 years (inclusive) at screening. • 2. Has a body mass index (BMI) in the range of 18.5 and 35 kg/m^2 (inclusive) at screening. • 3. Meets the trial criteria for PPD as assessed by a trial psychiatrist or registered psychologist: • a. Diagnosis of Major Depressive Disorder without psychotic features, confirmed by the Mini-International Neuropsychiatric Interview (MINI), with peri-partum onset that began no earlier than gestation and no later than the first 4 weeks postpartum. • b. Has a Montgomery-Åsberg Depression Rating Scale (MADRS) total score of equal to or greater than 28 at screening and pre-dose on Day 0. • 6. […] Patients must have a negative pregnancy test at screening and on the pre-test day (Day −1). • 5. Is willing to delay start of other antidepressant or anxiety medication until after the end of the trial at Day 7 and agrees to keep any psychotherapy unchanged during the trial.
A potential patient who meets any of the following key exclusion criteria will be excluded from participation in this trial: • 1. Has, based on history, psychiatric assessment, and evaluation of the MINI, a current or prior diagnosis of bipolar disorder, a manic or hypomanic episode, a psychotic disorder, Major Depressive Disorder (MDD) or other mood disorder with psychotic features, obsessive compulsive disorder, post-traumatic stress disorder (PTSD), autism spectrum disorder, borderline personality disorder, schizophrenia, delusional disorder, paranoid personality disorder, schizoaffective disorder, clinically significant intellectual disability, or any other psychiatric comorbidity that renders the patient unsuitable for the trial according to the investigator's judgment. • 2. Has one or more first or second degree relatives with a current or previously diagnosed bipolar disorder, psychotic disorder or other mood disorder (including MDD) with psychotic features. • 3. Is in the judgement of a trial psychiatrist or registered psychologist, at significant risk for suicide based on history, psychiatric assessment, and evaluation of suicidal ideation and suicidal behaviour based on the Columbia-Suicide Severity Rating Scale (C-SSRS). • 4. Has taken anti-depressive medication within 14 days or 5 half-lives (whichever is longer) prior to dosing (exception: within the last 5 weeks in the case of fluoxetine). • 5.

[1] = PPD patient n=1, 6 mg then 12 mg
[2] = PPD patient n=1, 6 mg then 12 mg, 2 hr
[3] = PPD patient n=1, 6 mg then 12 mg, Day 1
[4] = PPD patient n=1, 6 mg then 12 mg, Day 7
[5] = PPD patient n=1, 6 mg then 12 mg, discharge
[6] = PPD patient n=1, Day 7 vs Day 0

COc1ccc2[nH]cc(CCN(C)C)c2c1 [5-MeO-DMT]
tolerability of the inhalation procedure (PPD patient n=1): well tolerated with no inhalation-related adverse events | MADRS remission criteria (MADRS total score equal or less than 10) [1]: fulfilled | MADRS response criteria (at least 50% improvement from baseline) [1]: fulfilled | time to clinical remission after administration [1]: ≤ 2 h | durability of clinical response (PPD patient n=1, 6 mg then 12 mg given on one day): sustained over the 7-day follow-up period | Total MADRS improvement [2]: 24 | Total MADRS score [2]: 5 | BPRS Tension improvement [3]: 5 | Total MADRS improvement [3]: 29 | Total MADRS score [3]: 0 | BIMF item 1: I am a good mother [4]: 6 | BIMF item 2: I feel rested [4]: 2 | BIMF item 3: I am comfortable with the way I've chosen to feed my baby (either bottle or breast, or both) [4]: 6 | BIMF item 4: My baby and I understand each other [4]: 5 | BIMF item 5: I am able to relax and enjoy time with my baby [4]: 6 | BIMF item 6: There are people in my life that I can trust to care for my baby when I need a break [4]: 6 | BIMF item 8: I am getting enough adult interaction [4]: 6 | BIMF item 9: I am getting enough encouragement from other people [4]: 6 | BIMF item 10: I trust my own feelings (instincts) when it comes to taking care of my baby [4]: 6 | BIMF item 11: I take a little time each week to do something for myself [4]: 6 | BIMF item 12: I am taking good care of my baby's physical needs (feedings, changing diapers, doctor's appointments) [4]: 6 | BIMF item 13: I am taking good care of my physical needs (eating, showering, etc) [4]: 5 | BIMF item 14: I make good decisions about my baby's health and well being [4]: 6 | BIMF item 15: My baby and I are getting into a routine [4]: 6 | BIMF item 16: I worry about how other people judge me (as a mother) [4]: 5 | BIMF item 17: I am able to take care of my baby and my other responsibilities [4]: 5 | BIMF item 18: Anxiety or worry often interferes with my mothering ability [4]: 5 | BIMF item 20: I am satisfied with the job I am doing as a new mother [4]: 5 | Total MADRS improvement [4]: 28 | Total MADRS score [4]: 1 | BIMF functional domain Adjustment score [4]: 6 | BIMF functional domain Infant Care score [4]: 12 | BIMF functional domain Mother-Child Interaction score [4]: 17 | BIMF functional domain Self Care score [4]: 13 | BIMF functional domain Social Support score [4]: 18 | BIMF functional domain Management score [4]: 33 | BIMF functional domain Psychological Well-being score [4]: 53 | BPRS Blunted Affect score [5]: 1 | BPRS Conceptual disorganization score [5]: 1 | BPRS Disorientation score [5]: 1 | BPRS Grandiosity score [5]: 1 | BPRS Hallucinatory behaviour score [5]: 1 | BPRS Hostility score [5]: 1 | BPRS Mannerisms and Posturing score [5]: 1 | BPRS Motor retardation score [5]: 1 | BPRS Suspiciousness score [5]: 1 | BPRS Tension improvement [5]: 5 | BPRS Uncooperativeness score [5]: 1 | BPRS Unusual Thought Content score [5]: 1 | BIMF item 1: I am a good mother (PPD patient n=1, Day 0): 6 | BIMF item 2: I feel rested (PPD patient n=1, Day 0): 0 | BIMF item 3: I am comfortable with the way I've chosen to feed my baby (either bottle or breast, or both) (PPD patient n=1, Day 0): 6 | BIMF item 4: My baby and I understand each other (PPD patient n=1, Day 0): 5 | BIMF item 5: I am able to relax and enjoy time with my baby (PPD patient n=1, Day 0): 5 | BIMF item 6: There are people in my life that I can trust to care for my baby when I need a break (PPD patient n=1, Day 0): 6 | BIMF item 8: I am getting enough adult interaction (PPD patient n=1, Day 0): 6 | BIMF item 9: I am getting enough encouragement from other people (PPD patient n=1, Day 0): 5 | BIMF item 10: I trust my own feelings (instincts) when it comes to taking care of my baby (PPD patient n=1, Day 0): 5 | BIMF item 11: I take a little time each week to do something for myself (PPD patient n=1, Day 0): 5 | BIMF item 12: I am taking good care of my baby's physical needs (feedings, changing diapers, doctor's appointments) (PPD patient n=1, Day 0): 6 | BIMF item 13: I am taking good care of my physical needs (eating, showering, etc) (PPD patient n=1, Day 0): 4 | BIMF item 14: I make good decisions about my baby's health and well being (PPD patient n=1, Day 0): 6 | BIMF item 15: My baby and I are getting into a routine (PPD patient n=1, Day 0): 5 | BIMF item 16: I worry about how other people judge me (as a mother) (PPD patient n=1, Day 0): 3 | BIMF item 17: I am able to take care of my baby and my other responsibilities (PPD patient n=1, Day 0): 5 | BIMF item 18: Anxiety or worry often interferes with my mothering ability (PPD patient n=1, Day 0): 2 | BIMF item 19: As time goes on, I am getting better at taking care of my baby (PPD patient n=1, Day 0): 0 | BIMF item 20: I am satisfied with the job I am doing as a new mother (PPD patient n=1, Day 0): 6 | reported adverse events (cramping left abdominal pain and headache) (PPD patient n=1, Day 0): mild, short-lasting and resolved spontaneously | BIMF functional domain Adjustment score (PPD patient n=1, Day 0): 5 | BIMF functional domain Infant Care score (PPD patient n=1, Day 0): 12 | BIMF functional domain Mother-Child Interaction score (PPD patient n=1, Day 0): 15 | BIMF functional domain Self Care score (PPD patient n=1, Day 0): 9 | BIMF functional domain Social Support score (PPD patient n=1, Day 0): 17 | BIMF functional domain Management score (PPD patient n=1, Day 0): 28 | BIMF functional domain Psychological Well-being score (PPD patient n=1, Day 0): 44 | BIMF TOTAL score (PPD patient n=1, Day 0, possible total 120): 92 | BIMF total score improvement, percent (PPD patient n=1, Day 7): 14% | BIMF TOTAL score, Δ (Day 7) [6]: 13 | BIMF functional domain Adjustment, % Improvement [6]: 20.00% | BIMF functional domain Infant Care, % Improvement [6]: 0.00% | BIMF functional domain Management, % Improvement [6]: 18% | BIMF functional domain Self Care, % Improvement [6]: 44% | BPRS Anxiety score (PPD patient n=1, baseline): 7 | BPRS Depressive Mood score (PPD patient n=1, baseline): 6 | BPRS Emotional Withdrawal score (PPD patient n=1, baseline): 5 | BPRS Excitement score (PPD patient n=1, baseline): 2 | BPRS Guilt Feelings score (PPD patient n=1, baseline): 6 | BPRS Somatic Concern score (PPD patient n=1, baseline): 6 | MADRS Apparent sadness score (PPD patient n=1, baseline): 5 | MADRS Concentration Difficulties score (PPD patient n=1, baseline): 0 | MADRS Inability to Feel score (PPD patient n=1, baseline): 3 | MADRS Reduced Sleep score (PPD patient n=1, baseline): 5 | MADRS Reduced appetite score (PPD patient n=1, baseline): 0 | MADRS Reported sadness score (PPD patient n=1, baseline): 4 | MADRS Suicidal Thoughts score (PPD patient n=1, baseline): 0 | Total MADRS score (PPD patient n=1, baseline): 29 | changes in vital parameters (PPD patient n=1, shortly after administration): temporary, clinically non-relevant increase in heart rate and blood pressure | ECG, safety laboratory analyses, CADSS (PPD patient n=1, ECG 3 hours, laboratory 7 days, CADSS 3 hours, 1 day and 7 days): unremarkable
